Measurements: US4064260A, “Anti-inflammatory diarylimidazothiazoles and their corresponding S-oxides” (E. I. Du Pont de Nemours and Company, priority 1976, dated 1977)

Tests used:
[1] = tested on: Adjuvant-Induced Arthritis in Rats; assay: Established Adjuvant-Induced Arthritis in Rats (paw volume); format: in vivo, Charles River Lewis male rats; details: 24 h; rat; oral; dosed that day and 6 following days; ED50% decrease from control paw volume (uninjected left hind paw), one day after last dose
Method: A standard procedure for detecting and comparing the anti-inflammatory activity of compounds in this series for which there is good correlation with human efficacy is the adjuvant-induced arthritis test in rats.
Established Adjuvant-Induced Arthritis in Rats
Charles River Lewis male rats (130-150 grams) are injected subcutaneously in the plantar area of the right hind paw with 0.1 ml of adjuvant (Difco heat-killed, lyophilized Myobacterium butyricum suspended in mineral oil 5 mg./ml.). 20 Non-arthritic controls are injected with mineral oil. The animals are held for 2 weeks to allow development of arthritis. Paw volumes (uninjected, left hand paw) are measured and the adjuvant injected rats are culled and distributed to treatment groups of 10 of equal disease severity. Non-arthritic controls are distributed to 2 groups of 10. The rats are given oral doses of compound or PVA-Acacia (10 ml./kg.) on that day and on the 6 following days. One day after the last dose the paw volumes (uninjected, left hind paw) are measured using a Ugo Basile Volume Differential Meter Model 7101. [formula]
Dose-response regression lines of the % decrease are plotted on semi-log paper by visual fit and the ED50% decrease from control paw volume is determined by inspection.

[2] = tested on: phenylquinone writhing in mice; assay: phenylquinone writhing test in mice (analgesic); format: in vivo, Carworth CF-lS male mice; details: po; mouse; intubated in 0.5% methylcellulose; phenylquinone 1.25 mg/kg i.p. 30 min later; observed 30-40 min after antagonist
Method: An equally reliable test that is used for testing analgesic activity of compounds is the phenylquinone writhing test in mice.
Writhing was caused in mice by the intraperitoneal injection of phenyl-p-benzoquinone (Siegmund, E., Cadmus, R., Lu, G., Proc. Soc. Exp. Biol, and Med., 95, 729, 1957).
Groups of 10 or more Carworth CF-lS male mice, 18-21 g each, were fasted 17-21 hours and were intubated with the writhing antagonist at several dose levels in 0.5% methylcellulose. 30 Minutes later the mice were challenged with phenylquinone (1.25 mg./kg., i.p., dissolved in ethanol and diluted to 5% ethanol with distilled water at 40° C.). […] ED50' s were obtained by the Litchfield and Wilcoxon Method (Litchfield, J. T. and Wilcoxon, F., J.P.E.T., 96, 99 1949) and the Weil moving average method (Weil, C., Biometrics, 8 ,249 1952). Peak time studies were also done with some of these compounds and their peak time ED50' s were recorded.

| SMILES | ED50 [1] | ED50 [2] |
| --- | --- | --- |
| COc1ccc(-c2nc3n(c2-c2ccc(OC)cc2)C(F)C(F)(F)S3)cc1 (stereo not shown) [0 F F H F, 2,3-Dihydro-2,2,3-trifluoro-5,6-bis(p-methoxyphenyl)imidazo-[2,1-b]thiazole] | 11 mg/kg |  |
| COc1ccc(-c2nc3n(c2-c2ccc(OC)cc2)CCS3)cc1 [0 H H H H, 2,3-Dihydro-5,6-bis(p-methoxyphenyl)imidazo[2,1-b]thiazole] | 5.5 mg/kg | 64 mg/kg |
| COc1ccc(-c2nc3n(c2-c2ccc(OC)cc2)CC[S+]3[O-])cc1 (stereo not shown) [1 H H H H, 2,3-Dihydro-5,6-bis(p-methoxyphenyl)imidazo[2,1-b]thiazole S-oxide] | 7.4 mg/kg | 8.7 mg/kg |
| COc1ccc(-c2nc3n(c2-c2ccc(OC)cc2)CCS3(=O)=O)cc1 [2 H H H H, 2,3-Dihydro-5,6-bis(p-methoxyphenyl)imidazo[2,1-b]thiazole S,S-dioxide] | 8 mg/kg | > 130 mg/kg |
